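Dose response: 5 concentrations. Exposure: 48 h. Format: 96-well plates. Endpoint: linear interpolation; highest concentration if not reached. GI50 = concentration required for 50% inhibition of growth. TGI: concentration producing complete growth inhibition.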
Columns and labels:
Assay in all cases: NCI-60 cell line screen, 48 h
OVCAR-8 ovarian = system: OVCAR-8 ovarian
DU-145 prostate = system: DU-145 prostate
MDA-MB-435 = system: MDA-MB-435
SR leukemia = system: SR leukemia
UO-31 renal = system: UO-31 renal
U251 CNS = system: U251 CNS
NCI-H522 lung = system: NCI-H522 lung
RPMI-8226 leukemia = system: RPMI-8226 leukemia
SF-295 CNS = system: SF-295 CNS
SF-268 CNS = system: SF-268 CNS
COLO 205 colon = system: COLO 205 colon
OVCAR-3 ovarian = system: OVCAR-3 ovarian
T-47D breast = system: T-47D breast
OVCAR-4 ovarian = system: OVCAR-4 ovarian
HOP-92 NSCLC = system: HOP-92 NSCLC
SW-620 colon = system: SW-620 colon
SNB-19 CNS = system: SNB-19 CNS
SF-539 CNS = system: SF-539 CNS
UACC-257 melanoma = system: UACC-257 melanoma
MOLT-4 leukemia = system: MOLT-4 leukemia
MDA-MB-231 breast = system: MDA-MB-231 breast
M14 melanoma = system: M14 melanoma
TK-10 renal = system: TK-10 renal
CCRF-CEM leukemia = system: CCRF-CEM leukemia
SK-MEL-28 melanoma = system: SK-MEL-28 melanoma
KM12 colon = system: KM12 colon
LOX IMVI melanoma = system: LOX IMVI melanoma
HT29 colon = system: HT29 colon
HOP-62 NSCLC = system: HOP-62 NSCLC
MCF7 breast = system: MCF7 breast
A498 renal = system: A498 renal
SK-MEL-2 melanoma = system: SK-MEL-2 melanoma
MALME-3M melanoma = system: MALME-3M melanoma
SK-MEL-5 melanoma = system: SK-MEL-5 melanoma
ACHN renal = system: ACHN renal
HCT-116 colon = system: HCT-116 colon
NCI-H23 lung = system: NCI-H23 lung
IGROV1 ovarian = system: IGROV1 ovarian
786-0 renal = system: 786-0 renal
UACC-62 melanoma = system: UACC-62 melanoma
EKVX NSCLC = system: EKVX NSCLC
PC-3 prostate = system: PC-3 prostate
A549 NSCLC = system: A549 NSCLC
SK-OV-3 ovarian = system: SK-OV-3 ovarian
OVCAR-5 ovarian = system: OVCAR-5 ovarian
NCI/ADR-RES ovarian = system: NCI/ADR-RES ovarian
CAKI-1 renal = system: CAKI-1 renal
SN12C renal = system: SN12C renal
HCT-15 colon = system: HCT-15 colon
K-562 leukemia = system: K-562 leukemia
BT-549 breast = system: BT-549 breast
HCC-2998 colon = system: HCC-2998 colon
HS 578T breast = system: HS 578T breast
RXF 393 renal = system: RXF 393 renal
NCI-H460 lung = system: NCI-H460 lung
SNB-75 CNS = system: SNB-75 CNS
HL-60(TB) leukemia = system: HL-60(TB) leukemia
NCI-H226 lung = system: NCI-H226 lung

## CC(=O)Oc1cn(-c2ccc(Cl)cc2)nc1C1=NN(C(C)=O)C(c2ccc(F)cc2F)O1 (stereo not given)
OVCAR-8 ovarian
  GI50: 34.6 µM
  TGI: > 100 µM
DU-145 prostate
  GI50: 39.2 µM
  TGI: > 100 µM
MDA-MB-435
  GI50: 27.9 µM
  TGI: 89.5 µM
SR leukemia
  GI50: 35.8 µM
  TGI: 85.4 µM
UO-31 renal
  GI50: 31.8 µM
  TGI: > 100 µM
U251 CNS
  GI50: 38.5 µM
  TGI: > 100 µM
NCI-H522 lung
  GI50: 45.6 µM
  TGI: > 100 µM
RPMI-8226 leukemia
  GI50: 20.5 µM
  TGI: 54.8 µM
SF-295 CNS
  GI50: 20.2 µM
  TGI: 51.3 µM
SF-268 CNS
  GI50: 29.6 µM
  TGI: > 100 µM
COLO 205 colon
  GI50: 42.7 µM
  TGI: > 100 µM
OVCAR-3 ovarian
  GI50: 19.7 µM
  TGI: 75.9 µM
T-47D breast
  GI50: 67.3 µM
  TGI: > 100 µM
OVCAR-4 ovarian
  GI50: 74.3 µM
  TGI: > 100 µM
HOP-92 NSCLC
  GI50: 20.6 µM
  TGI: 71.6 µM
SW-620 colon
  GI50: 41.4 µM
  TGI: > 100 µM
SNB-19 CNS
  GI50: 48.7 µM
  TGI: > 100 µM
SF-539 CNS
  GI50: 29.8 µM
  TGI: > 100 µM
UACC-257 melanoma
  GI50: 27.2 µM
  TGI: 81.6 µM
MOLT-4 leukemia
  GI50: 18.5 µM
  TGI: 94 µM
MDA-MB-231 breast
  GI50: 30.4 µM
  TGI: > 100 µM
M14 melanoma
  GI50: 31.4 µM
  TGI: > 100 µM
TK-10 renal
  GI50: 21.1 µM
  TGI: 61.9 µM
CCRF-CEM leukemia
  GI50: 27.5 µM
  TGI: > 100 µM
SK-MEL-28 melanoma
  GI50: 50.2 µM
  TGI: > 100 µM
KM12 colon
  GI50: 25.4 µM
  TGI: 84.2 µM
LOX IMVI melanoma
  GI50: 30.1 µM
  TGI: > 100 µM
HT29 colon
  GI50: 40.1 µM
  TGI: > 100 µM
HOP-62 NSCLC
  GI50: 36.2 µM
  TGI: > 100 µM
MCF7 breast
  GI50: 30 µM
  TGI: > 100 µM
A498 renal
  GI50: 29.1 µM
  TGI: 66.4 µM
SK-MEL-2 melanoma
  GI50: 74 µM
  TGI: > 100 µM
MALME-3M melanoma
  GI50: 14.8 µM
  TGI: 63.5 µM
SK-MEL-5 melanoma
  GI50: 18.4 µM
  TGI: 38.4 µM
ACHN renal
  GI50: 44.3 µM
  TGI: > 100 µM
HCT-116 colon
  GI50: 33.4 µM
  TGI: > 100 µM
NCI-H23 lung
  GI50: 41.6 µM
  TGI: > 100 µM
IGROV1 ovarian
  GI50: 13.4 µM
  TGI: 76.2 µM
786-0 renal
  GI50: 26.1 µM
  TGI: 70.3 µM
UACC-62 melanoma
  GI50: 28.8 µM
  TGI: 96.3 µM
EKVX NSCLC
  GI50: 28.5 µM
  TGI: 83 µM
PC-3 prostate
  GI50: 27.9 µM
  TGI: > 100 µM
A549 NSCLC
  GI50: 33.2 µM
  TGI: > 100 µM
SK-OV-3 ovarian
  GI50: 50.4 µM
  TGI: > 100 µM
OVCAR-5 ovarian
  GI50: 44.4 µM
  TGI: > 100 µM
NCI/ADR-RES ovarian
  GI50: 42.9 µM
  TGI: > 100 µM
CAKI-1 renal
  GI50: 35.6 µM
  TGI: 79.8 µM
SN12C renal
  GI50: 33.6 µM
  TGI: > 100 µM
HCT-15 colon
  GI50: 32.2 µM
  TGI: > 100 µM
K-562 leukemia
  GI50: 30 µM
  TGI: > 100 µM
BT-549 breast
  GI50: 19.5 µM
  TGI: 54.7 µM
HCC-2998 colon
  GI50: 35.7 µM
  TGI: 55.3 µM
HS 578T breast
  GI50: 31.8 µM
  TGI: 88.8 µM
RXF 393 renal
  GI50: 23.9 µM
  TGI: > 100 µM
NCI-H460 lung
  GI50: 34.4 µM
  TGI: > 100 µM

## COc1ccc(C(=O)N2N=C(c3ccc(Br)cc3)CC2c2cn(-c3ccccc3)nc2-c2ccccc2)cc1 (stereo not given)
OVCAR-8 ovarian
  GI50: 8.55 µM
  TGI: > 50 µM
DU-145 prostate
  GI50: 25 µM
  TGI: > 50 µM
MDA-MB-435
  GI50: > 50 µM
  TGI: > 50 µM
SR leukemia
  GI50: 7.78 µM
  TGI: 16.2 µM
UO-31 renal
  GI50: 42.6 µM
  TGI: > 50 µM
U251 CNS
  GI50: 13 µM
  TGI: > 50 µM
RPMI-8226 leukemia
  GI50: > 50 µM
  TGI: > 50 µM
SF-295 CNS
  GI50: 17 µM
  TGI: > 50 µM
SF-268 CNS
  GI50: 34.8 µM
  TGI: > 50 µM
COLO 205 colon
  GI50: > 50 µM
  TGI: > 50 µM
SNB-75 CNS
  GI50: 30.3 µM
  TGI: > 50 µM
OVCAR-3 ovarian
  GI50: 23.9 µM
  TGI: > 50 µM
T-47D breast
  GI50: 13.4 µM
  TGI: > 50 µM
OVCAR-4 ovarian
  GI50: 15.2 µM
  TGI: > 50 µM
HOP-92 NSCLC
  GI50: 1.79 µM
  TGI: 15.8 µM
SW-620 colon
  GI50: > 50 µM
  TGI: > 50 µM
SNB-19 CNS
  GI50: 20.4 µM
  TGI: > 50 µM
SF-539 CNS
  GI50: 39.5 µM
  TGI: > 50 µM
UACC-257 melanoma
  GI50: > 50 µM
  TGI: > 50 µM
MOLT-4 leukemia
  GI50: 11.4 µM
  TGI: 25.3 µM
MDA-MB-231 breast
  GI50: 5.47 µM
  TGI: > 50 µM
M14 melanoma
  GI50: 15.7 µM
  TGI: > 50 µM
TK-10 renal
  GI50: 20.6 µM
  TGI: > 50 µM
CCRF-CEM leukemia
  GI50: 9.86 µM
  TGI: 29.7 µM
SK-MEL-28 melanoma
  GI50: > 50 µM
  TGI: > 50 µM
KM12 colon
  GI50: > 50 µM
  TGI: > 50 µM
LOX IMVI melanoma
  GI50: 42.1 µM
  TGI: > 50 µM
HT29 colon
  GI50: > 50 µM
  TGI: > 50 µM
HOP-62 NSCLC
  GI50: 9.05 µM
  TGI: 44.5 µM
MCF7 breast
  GI50: > 50 µM
  TGI: > 50 µM
A498 renal
  GI50: 6.82 µM
  TGI: 28.5 µM
MALME-3M melanoma
  GI50: > 50 µM
  TGI: > 50 µM
SK-MEL-5 melanoma
  GI50: 15 µM
  TGI: > 50 µM
ACHN renal
  GI50: 18.9 µM
  TGI: > 50 µM
HCT-116 colon
  GI50: 2.87 µM
  TGI: > 50 µM
NCI-H23 lung
  GI50: 20.8 µM
  TGI: > 50 µM
IGROV1 ovarian
  GI50: 19.4 µM
  TGI: > 50 µM
786-0 renal
  GI50: 19 µM
  TGI: > 50 µM
UACC-62 melanoma
  GI50: 42.8 µM
  TGI: > 50 µM
EKVX NSCLC
  GI50: > 50 µM
  TGI: > 50 µM
HL-60(TB) leukemia
  GI50: 30.5 µM
  TGI: > 50 µM
PC-3 prostate
  GI50: > 50 µM
  TGI: > 50 µM
A549 NSCLC
  GI50: 4.28 µM
  TGI: > 50 µM
SK-OV-3 ovarian
  GI50: 12.1 µM
  TGI: 36.3 µM
OVCAR-5 ovarian
  GI50: > 50 µM
  TGI: > 50 µM
NCI/ADR-RES ovarian
  GI50: 33 µM
  TGI: > 50 µM
CAKI-1 renal
  GI50: 41.7 µM
  TGI: > 50 µM
SN12C renal
  GI50: 47.4 µM
  TGI: > 50 µM
HCT-15 colon
  GI50: > 50 µM
  TGI: > 50 µM
NCI-H226 lung
  GI50: 18.3 µM
  TGI: > 50 µM
BT-549 breast
  GI50: 30.6 µM
  TGI: > 50 µM
HCC-2998 colon
  GI50: > 50 µM
  TGI: > 50 µM
HS 578T breast
  GI50: 20.5 µM
  TGI: > 50 µM
RXF 393 renal
  GI50: 6.28 µM
  TGI: > 50 µM
NCI-H460 lung
  GI50: 15.3 µM
  TGI: > 50 µM

From PubChem BioAssay (NCI)
